In paper PMC8815882, “Screening the pandemic response box identified benzimidazole carbamates, Olorofim and ravuconazole as promising drug candidates for the treatment of eumycetoma” (PLoS Neglected Tropical Diseases, 2022):
pIC50: −log10 of the molar value. Read-outs that look alike come from different tables or passages of the source.

Key:
[1] = tested on: M. pseudomycetomatis strain Mex2A; experiment: CLSI M38-A2 based in vitro susceptibility screening at 25 μM; assay type: cell-based, Madurella pseudomycetomatis; settings: selected if >75% (resazurin) or >80% (XTT) fungal growth inhibited
M. mycetomatis MM55 = experiment: IC50 determination, 2-fold dilution series 16 to 0.03125 μM; assay type: cell-based, Madurella mycetomatis; settings: for pIC50 / IC90: Madurella mycetomatis
[2] = tested on: M. mycetomatis genome strain MM55; experiment: CLSI M38-A2 based in vitro susceptibility screening (XTT or resazurin), growth at fixed concentration; assay type: cell-based, Madurella mycetomatis; settings: for Inhibits growth of Madurella mycetomatis at 25 μM: selected if >75% (resazurin) or >80% (XTT) fungal growth inhibited
[3] = tested on: Me. romeroi strain CBS128765; experiment: CLSI M38-A2 based in vitro susceptibility screening at 25 μM; assay type: cell-based, Medicopsis romeroi; settings: selected if >75% (resazurin) or >80% (XTT) fungal growth inhibited
[4] = tested on: F. senegalensis strain CBS132257; experiment: as above; assay type: cell-based, Falciformispora senegalensis; settings: selected if >75% (resazurin) or >80% (XTT) fungal growth inhibited
[5] = tested on: M. tropicana strain CBS206.47; experiment: as above; assay type: cell-based, Madurella tropicana; settings: selected if >75% (resazurin) or >80% (XTT) fungal growth inhibited
M. mycetomatis = experiment: Drug static or cidal; assay type: cell-based, Madurella mycetomatis
Text: Supplement pntd.0010159.s001.xlsx, sheet "Pandemic Box Master sheet" | column: Drug static or cidal

[6] = MM55, replicate 1, read-out: IC50 1 um
[7] = MM55, replicate 1, read-out: IC90 1 um
[8] = MM55, replicate 2, read-out: IC50 2 um
[9] = MM55, replicate 2, read-out: IC90 2 um
[10] = MM55, replicate 3, read-out: IC50 3 um
[11] = MM55, replicate 3, read-out: IC90 3 um
[12] = Madurella mycetomatis, mean of three replicates, read-out: Percentage survival at 25um, 25 uM mean
[13] = Madurella mycetomatis, replicate A, read-out: Percentage survival at 25um, 25 um A
[14] = Madurella mycetomatis, replicate B, read-out: Percentage survival at 25um, 25 uM B
[15] = Madurella mycetomatis, replicate C, read-out: Percentage survival at 25um, 25 uM C
[16] = Madurella mycetomatis, 100 uM, mean of three replicates, read-out: Percentage survival at 100um, 100 uM mean
[17] = MM55, mean of replicates, read-out: IC50 mean
[18] = MM55, replicate 1, read-out: IC50 1
[19] = MM55, replicate 1, read-out: IC90 1
[20] = MM55, replicate 2, read-out: IC50 2
[21] = MM55, replicate 2, read-out: IC90 2
[22] = MM55, replicate 3, read-out: IC50 3
[23] = MM55, replicate 3, read-out: IC90 3
[24] = Madurella mycetomatis, mean of replicates, read-out: Percentage survival at 25um, 25 uM mean
[25] = Madurella mycetomatis, 100 uM, mean of replicates, read-out: Percentage survival at 100um, 100 uM mean
[26] = Madurella mycetomatis, 100 uM, replicate 1, read-out: Percentage survival at 100um, 100 uM A
[27] = Madurella mycetomatis, 100 uM, replicate 2, read-out: Percentage survival at 100um, 100 uM A
[28] = Madurella mycetomatis, 100 uM, replicate 3, read-out: Percentage survival at 100um, 100 uM A

pIC50 (M. mycetomatis MM55; [6]) | IC90 (M. mycetomatis MM55; [7]) [µM] | pIC50 (M. mycetomatis MM55; [8]) | IC90 (M. mycetomatis MM55; [9]) [µM] | pIC50 (M. mycetomatis MM55; [10]) | IC90 (M. mycetomatis MM55; [11]) [µM] | pIC50 (M. mycetomatis MM55; [17]) | pIC50 (M. mycetomatis MM55; [18]) | IC90 (M. mycetomatis MM55; [19]) [µM] | pIC50 (M. mycetomatis MM55; [20]) | IC90 (M. mycetomatis MM55; [21]) [µM] | SMILES | Inhibits growth of Madurella pseudomycetomatis at 25 μM [1] | Inhibits growth of Madurella mycetomatis at 25 μM [2] | activity at 25 µM [2, 12] [%] | activity at 25 µM [2, 13] [%] | activity at 25 µM [2, 14] [%] | activity at 25 µM [2, 15] [%] | activity at 100 µM [2, 16] [%] | Inhibits growth of Madurella tropicana at 25 μM [5] | Drug static or cidal (M. mycetomatis) | other results
4.66 | > 25 | 4.76 | 24.2 | 4.90 | 21.6 | – | – | – | – | – | CCC(C)NCC(O)Cn1c2ccc(Cl)cc2c2cc(Cl)ccc21 (stereo not shown) [MMV1578570] | inhibit the growth | inhibit the growth | 7.02 | 9.54 | -1.08 | 12.6 | 3.38 | inhibit the growth | – | Drug static or cidal (M. mycetomatis MM55): Static; pIC50 (M. mycetomatis MM55; MM55, mean of three replicates, read-out: IC50 mean): 4.77; activity at 100 µM ([2]; Madurella mycetomatis, 100 uM, replicate 1, read-out: Percentage survival at 100um, 100 uM A (first replicate column)): 1.05%; Percent fungal survival at 100 µM ([2]; Madurella mycetomatis, 100 uM, replicate 2, read-out: Percentage survival at 100um, 100 uM A (second replicate column)): 3.75%; activity at 100 µM ([2]; Madurella mycetomatis, 100 uM, replicate 3, read-out: Percentage survival at 100um, 100 uM A (third replicate column)): 5.34%; Inhibits growth of Medicopsis romeroi at 25 μM [3]: inhibit the growth; Inhibits growth of Falciformispora senegalensis at 25 μM [4]: inhibit the growth
– | – | – | – | – | – | < 4.60 | < 4.60 | > 25 | < 4.60 | > 25 | Cc1ccc(NC(=O)c2cc(Cl)ccc2O)cc1 [MMV1578897] | – | – | – | 3.43 | 0.378 | 10.8 | – | – | Static | IC90 (M. mycetomatis MM55; MM55, mean of replicates, read-out: IC90 mean): > 25 µM; pIC50 (M. mycetomatis MM55; [22]): < 4.60; IC90 (M. mycetomatis MM55; [23]): > 25 µM; activity at 25 µM [2, 24]: 4.86%; activity at 100 µM [2, 25]: 2.02%; activity at 100 µM [2, 26]: 2.19%; activity at 100 µM [2, 27]: 0.189%; activity at 100 µM [2, 28]: 3.69%
4.76 | > 25 | 4.82 | 22.8 | 4.83 | 22.2 | 4.80 | – | – | – | – | CN1CCN(Cc2ccc(-c3cnc4[nH]cc(-c5ccc6[nH]ccc6c5)c4c3)cc2)CC1 [MMV1580482] | – | – | 2.87 | 0.0624 | 1.21 | 7.33 | 16.3 | – | Static | activity at 100 µM ([2]; Madurella mycetomatis, 100 uM, first replicate column, read-out: Percentage survival at 100um, 100 uM A): 27.2%; activity at 100 µM ([2]; Madurella mycetomatis, 100 uM, second replicate column, read-out: Percentage survival at 100um, 100 uM A): 11.5%; activity at 100 µM ([2]; Madurella mycetomatis, 100 uM, third replicate column, read-out: Percentage survival at 100um, 100 uM A): 10.2%
– | – | – | – | – | – | 4.87 | 4.82 | 23.2 | 4.94 | 21.7 | O=C(Nc1nnc(-c2ccc(Cl)cc2)o1)c1ccc(F)cc1 [MMV1782140] | – | – | – | 5.38 | 8.31 | 13.2 | – | – | Cidal | pIC50 (M. mycetomatis MM55; [22]): 4.87; IC90 (M. mycetomatis MM55; [23]): > 25 µM; activity at 25 µM [2, 24]: 8.95%; activity at 100 µM [2, 25]: 2.78%; activity at 100 µM [2, 26]: -0.102%; activity at 100 µM [2, 27]: 3.75%; activity at 100 µM [2, 28]: 4.7%
– | – | – | – | – | – | – | – | – | – | – | OC(Cn1cncn1)(Cn1cncn1)c1ccc(F)cc1F [fluconazole] | inhibit the growth | not M. mycetomatis and M. tropicana | – | – | – | – | – | not M. mycetomatis and M. tropicana | – | –
